How the values were obtained:
Format in all cases: functional, cell-based
MCF7 = experiment: Cytotoxicity against human MCF7 cells assessed as reduction in cell viability by CCK-8 assay
A549 = experiment: Cytotoxicity against human A549 cells assessed as reduction in cell viability by CCK-8 assay
HepG2 = experiment: Cytotoxicity against human HepG2 cells assessed as reduction in cell viability by CCK-8 assay
PC-3M = experiment: Cytotoxicity against human PC-3M cells assessed as reduction in cell viability by CCK-8 assay
PANC-1 = experiment: Cytotoxicity against human PANC-1 cells assessed as reduction in cell viability by CCK-8 assay

Row | SMILES | IC50 (MCF7) | IC50 (A549) | IC50 (HepG2) | IC50 (PC-3M) | IC50 (PANC-1)
1 | C=C(C)[C@@H]1CC[C@]2(C(=O)OCCCCCn3ccnc3C)CC[C@]3(C)[C@H](C[C@H]4OC(=O)C[C@@H](O)[C@]5(C)[C@@H]4[C@@]3(C)CC[C@H]5C(=C)C)[C@@H]12 | 46 µM | 15.9 µM | 8.89 µM | 12.4 µM | 14.2 µM
2 | C=C(C)[C@@H]1CC[C@]2(C(=O)OCCCCCn3ccnc3CC)CC[C@]3(C)[C@H](C[C@@H](O)[C@@H]4[C@@]5(C)C(CC(=O)OC)OC(C)(C)C5CC[C@]43C)[C@@H]12 (stereo not given in full) | 45.5 µM | 25.9 µM | 14.1 µM | 23.9 µM | 26.8 µM
3 | C=C(C)[C@@H]1CC[C@]2(C(=O)OCCCCCCCCCCn3ccnc3CC)CC[C@]3(C)[C@H](C[C@@H](O)[C@@H]4[C@@]5(C)C(CC(=O)OC)OC(C)(C)C5CC[C@]43C)[C@@H]12 (stereo not given in full) | 18.5 µM | 18.5 µM | 6.97 µM | 11.5 µM | 10.6 µM
4 | C=C(C)[C@@H]1CC[C@]2(C(=O)OCCCn3cnc(C)c3)CC[C@]3(C)[C@H](C[C@H]4OC(=O)C[C@@H](O)[C@]5(C)[C@@H]4[C@@]3(C)CC[C@H]5C(=C)C)[C@@H]12 | 48.6 µM | 39.5 µM | 35.3 µM | 18.5 µM | 83.8 µM
5 | C=C(C)[C@@H]1CC[C@]2(C(=O)O)CC[C@]3(C)[C@H](C[C@@H](O)[C@@H]4[C@@]5(C)C(CC(=O)OC)OC(C)(C)C5CC[C@]43C)[C@@H]12 (stereo not given in full) | > 200 µM | > 200 µM | > 200 µM | 103 µM | > 200 µM
6 | C=C(C)[C@@H]1CC[C@]2(C(=O)OCCCCn3cnc(C)c3)CC[C@]3(C)[C@H](C[C@H]4OC(=O)C[C@@H](O)[C@]5(C)[C@@H]4[C@@]3(C)CC[C@H]5C(=C)C)[C@@H]12 | 45.3 µM | 20 µM | 16 µM | 15.5 µM | 29.2 µM
7 | C=C(C)[C@@H]1CC[C@]2(C(=O)OCCCCCCCCCCn3ccnc3)CC[C@]3(C)[C@H](C[C@@H](O)[C@@H]4[C@@]5(C)C(CC(=O)OC)OC(C)(C)C5CC[C@]43C)[C@@H]12 (stereo not given in full) | 36.1 µM | 22.4 µM | 6.83 µM | 14 µM | 14 µM
8 | C=C(C)[C@@H]1CC[C@]2(C(=O)OCCCCCCCCCCn3cc(CCN)c4ccccc43)CC[C@]3(C)[C@H](C[C@@H](O)[C@@H]4[C@@]5(C)C(CC(=O)OC)OC(C)(C)C5CC[C@]43C)[C@@H]12 (stereo not given in full) | 25.5 µM | 7.97 µM | 2.11 µM | 5.7 µM | 5.63 µM
9 | C=C(C)[C@@H]1CC[C@]2(C(=O)OCCCCCCBr)CC[C@]3(C)[C@H](C[C@H]4OC(=O)C[C@@H](O)[C@]5(C)[C@@H]4[C@@]3(C)CC[C@H]5C(=C)C)[C@@H]12 | 75.7 µM | 27.6 µM | 12.3 µM | 16.1 µM | 21.8 µM
10 | C=C(C)[C@@H]1CC[C@]2(C(=O)OCCCCCCCCCCn3ccnc3CC)CC[C@]3(C)[C@H](C[C@H]4OC(=O)C[C@@H](O)[C@]5(C)[C@@H]4[C@@]3(C)CC[C@H]5C(=C)C)[C@@H]12 | 30.9 µM | 15.1 µM | 4.36 µM | 13.9 µM | 9.93 µM
11 | C=C(C)[C@@H]1CC[C@]2(C(=O)OCCCn3ccnc3)CC[C@]3(C)[C@H](C[C@@H](O)[C@@H]4[C@@]5(C)C(CC(=O)OC)OC(C)(C)C5CC[C@]43C)[C@@H]12 (stereo not given in full) | 73.2 µM | 34.8 µM | 27.2 µM | 35.6 µM | 56.5 µM
12 | C=C(C)[C@@H]1CC[C@]2(C(=O)OCCCCCCCCCCBr)CC[C@]3(C)[C@H](C[C@H]4OC(=O)C[C@@H](O)[C@]5(C)[C@@H]4[C@@]3(C)CC[C@H]5C(=C)C)[C@@H]12 | 53.9 µM | 22 µM | 10.9 µM | 17.3 µM | 23.1 µM
13 | C=C(C)[C@@H]1CC[C@]2(C(=O)OCCCBr)CC[C@]3(C)[C@H](C[C@@H](O)[C@@H]4[C@@]5(C)C(CC(=O)OC)OC(C)(C)C5CC[C@]43C)[C@@H]12 (stereo not given in full) | 98.8 µM | 41.2 µM | 28.6 µM | 47.6 µM | 70.7 µM
14 | C=C(C)[C@@H]1CC[C@]2(C(=O)OCCCn3ccnc3C)CC[C@]3(C)[C@H](C[C@@H](O)[C@@H]4[C@@]5(C)C(CC(=O)OC)OC(C)(C)C5CC[C@]43C)[C@@H]12 (stereo not given in full) | 69.5 µM | 24.9 µM | 22.6 µM | 34.4 µM | 50.6 µM
15 | C=C(C)[C@@H]1CC[C@]2(C(=O)OCCCn3cncn3)CC[C@]3(C)[C@H](C[C@@H](O)[C@@H]4[C@@]5(C)C(CC(=O)OC)OC(C)(C)C5CC[C@]43C)[C@@H]12 (stereo not given in full) | 81.6 µM | 31.3 µM | 29.2 µM | 43.2 µM | 57 µM
16 | C=C(C)[C@@H]1CC[C@]2(C(=O)OCCCn3ccnc3C)CC[C@]3(C)[C@H](C[C@H]4OC(=O)C[C@@H](O)[C@]5(C)[C@@H]4[C@@]3(C)CC[C@H]5C(=C)C)[C@@H]12 | 46.8 µM | 21.5 µM | 14.6 µM | 16 µM | 24.8 µM
17 | C=C(C)[C@@H]1CC[C@]2(C(=O)OCCCCCn3ccnc3CC)CC[C@]3(C)[C@H](C[C@H]4OC(=O)C[C@@H](O)[C@]5(C)[C@@H]4[C@@]3(C)CC[C@H]5C(=C)C)[C@@H]12 | 50.2 µM | 14.3 µM | 6.1 µM | 12.5 µM | 12.8 µM
18 | C=C(C)[C@@H]1CC[C@]2(C(=O)OCCCCn3ccnc3CC)CC[C@]3(C)[C@H](C[C@@H](O)[C@@H]4[C@@]5(C)C(CC(=O)OC)OC(C)(C)C5CC[C@]43C)[C@@H]12 (stereo not given in full) | 40.3 µM | 28.5 µM | 15.7 µM | 25.9 µM | 31.5 µM
19 | C=C(C)[C@@H]1CC[C@]2(C(=O)OCCCCCCCCCCn3cncn3)CC[C@]3(C)[C@H](C[C@@H](O)[C@@H]4[C@@]5(C)C(CC(=O)OC)OC(C)(C)C5CC[C@]43C)[C@@H]12 (stereo not given in full) | 71 µM | 77.8 µM | 36.4 µM | 23.5 µM | 104 µM
20 | C=C(C)[C@@H]1CC[C@]2(C(=O)OCCCCCCn3ccnc3C)CC[C@]3(C)[C@H](C[C@@H](O)[C@@H]4[C@@]5(C)C(CC(=O)OC)OC(C)(C)C5CC[C@]43C)[C@@H]12 (stereo not given in full) | 29.9 µM | 25.4 µM | 12 µM | 20.9 µM | 18.7 µM
21 | C=C(C)[C@@H]1CC[C@]2(C(=O)OCCCCCCn3ccnc3C)CC[C@]3(C)[C@H](C[C@H]4OC(=O)C[C@@H](O)[C@]5(C)[C@@H]4[C@@]3(C)CC[C@H]5C(=C)C)[C@@H]12 | 76.2 µM | 18.9 µM | 12.9 µM | 14 µM | 17.9 µM
22 | C=C(C)[C@@H]1CC[C@]2(C(=O)OCCCn3cnc(C)c3)CC[C@]3(C)[C@H](C[C@@H](O)[C@@H]4[C@@]5(C)C(CC(=O)OC)OC(C)(C)C5CC[C@]43C)[C@@H]12 (stereo not given in full) | 71.9 µM | 31.5 µM | 21.6 µM | 30.6 µM | 49.2 µM
23 | C=C(C)[C@@H]1CC[C@]2(C(=O)OCCCCn3cc(CCN)c4ccccc43)CC[C@]3(C)[C@H](C[C@@H](O)[C@@H]4[C@@]5(C)C(CC(=O)OC)OC(C)(C)C5CC[C@]43C)[C@@H]12 (stereo not given in full) | 6.25 µM | 7.05 µM | 1.7 µM | 5.66 µM | 6.42 µM
24 | C=C(C)[C@@H]1CC[C@]2(C(=O)OCCCCn3ccnc3)CC[C@]3(C)[C@H](C[C@@H](O)[C@@H]4[C@@]5(C)C(CC(=O)OC)OC(C)(C)C5CC[C@]43C)[C@@H]12 (stereo not given in full) | 75.2 µM | 36.7 µM | 26 µM | 44.3 µM | 53.4 µM
25 | C=C(C)[C@@H]1CC[C@]2(C(=O)OCCCn3ccnc3CC)CC[C@]3(C)[C@H](C[C@H]4OC(=O)C[C@@H](O)[C@]5(C)[C@@H]4[C@@]3(C)CC[C@H]5C(=C)C)[C@@H]12 | 47 µM | 21.2 µM | 16.4 µM | 12.3 µM | 26.9 µM
26 | C=C(C)[C@@H]1CC[C@]2(C(=O)OCCCCn3ccnc3CC)CC[C@]3(C)[C@H](C[C@H]4OC(=O)C[C@@H](O)[C@]5(C)[C@@H]4[C@@]3(C)CC[C@H]5C(=C)C)[C@@H]12 | 91.1 µM | 19.5 µM | 14.6 µM | 12.1 µM | 16.1 µM
27 | C=C(C)[C@@H]1CC[C@]2(C(=O)OCCCCCCCCCCn3cnc(C)c3)CC[C@]3(C)[C@H](C[C@@H](O)[C@@H]4[C@@]5(C)C(CC(=O)OC)OC(C)(C)C5CC[C@]43C)[C@@H]12 (stereo not given in full) | 33.7 µM | 22.4 µM | 6.76 µM | 12.7 µM | 12.3 µM
28 | C=C(C)[C@@H]1CC[C@]2(C(=O)OCCCCCn3cc(CCN)c4ccccc43)CC[C@]3(C)[C@H](C[C@@H](O)[C@@H]4[C@@]5(C)C(CC(=O)OC)OC(C)(C)C5CC[C@]43C)[C@@H]12 (stereo not given in full) | 18.1 µM | 6.63 µM | 1.7 µM | 3.87 µM | 5.81 µM
29 | C=C(C)[C@@H]1CC[C@]2(C(=O)OCCCCCCCCCCn3ccnc3)CC[C@]3(C)[C@H](C[C@H]4OC(=O)C[C@@H](O)[C@]5(C)[C@@H]4[C@@]3(C)CC[C@H]5C(=C)C)[C@@H]12 | 44.9 µM | 17.2 µM | 4.23 µM | 11.8 µM | 11.3 µM
30 | C=C(C)[C@@H]1CC[C@]2(C(=O)OCCCCn3ccnc3C)CC[C@]3(C)[C@H](C[C@H]4OC(=O)C[C@@H](O)[C@]5(C)[C@@H]4[C@@]3(C)CC[C@H]5C(=C)C)[C@@H]12 | 77.6 µM | 48.4 µM | 27.8 µM | 30 µM | 56.5 µM
